Read-outs that look alike come from different tables or passages of the source.
What was measured:
[1] = tested on: MYB mRNA; test: RT-qPCR splicing assay, MYB mRNA canonical (CJ) and alternative (AJ) junction; type: cell-based, human; settings: Homo sapiens; for AC50: MYB alternative junction mRNA, read-out: MYB AJ (increase in AJ mRNA, AC50)
Outline: (§1)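 Both isoforms, CJ and AJ, read by qPCR from crude lysates of treated A673 or K562 cells; 24 h, 37 °C, maximum 10 uM. Normalization: housekeeper ΔCt, then DMSO ΔΔCt.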

[2] = tested on: HTT; test: HiBiT protein abundance assay, HTT (K562 HiBiT knock-in); type: cell-based, human; settings: HiBiT knock-in K562 cells, 24 hours, top dose 10 μM
Outline: (§2)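 Tagged-protein levels were measured as HiBiT/LgBiT luminescence in lysed K562 knock-in cells exposed to serially diluted compound (up to 10 μM final) for 24 hours. A four-parameter logistic regression of control-normalized signal yielded the IC50.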

[3] = tested on: K562 cells; test: Cell Titer Glo 2.0 cell viability (toxicity) assay, K562; settings: 500 cells/well, 72 hours
[4] = tested on: SMN2 mRNA; test: RT-qPCR splicing assay, SMN2 mRNA; type: cell-based, human; settings: Homo sapiens, canonical junction qPCR panel, Table 4; read-out: SMN2 IC50 (decrease in CJ mRNA levels)
Outline: as §1

[5] = tested on: HTT mRNA; test: RT-qPCR splicing assay, HTT mRNA canonical (CJ) and alternative (AJ) junction; type: cell-based, human; settings: Homo sapiens; for AC50: HTT alternative junction mRNA, read-out: HTT AJ (increase in AJ mRNA, AC50)
Outline: as §1

[6] = tested on: Target C; test: HiBiT protein abundance assay, Target C (K562 HiBiT knock-in); type: cell-based, human; settings: HiBiT knock-in K562 cells, 24 hours, top dose 10 μM
Outline: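 K562 HiBiT knock-in cells (10000/well) were treated 24 h at 37° C with a 10-point 3-fold dilution series (top 10 μM final, ≤0.25% DMSO). HiBiT luminescence was read after lytic LgBiT detection. Percent response used unmodified K562 and DMSO-treated knock-in controls, and IC50 came from a four-parameter fit at 50% of untreated.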

[7] = tested on: MYB; test: HiBiT protein abundance assay, MYB (K562 HiBiT knock-in); type: cell-based, human; settings: HiBiT knock-in K562 cells, 24 hours, top dose 10 μM
Outline: as §2

[8] = MYB canonical junction mRNA, RT-qPCR, read-out: MYB CJ (decrease in CJ mRNA levels, IC50)
[9] = canonical junction qPCR panel, Table 4, read-out: MYB IC50 (decrease in CJ mRNA levels)
[10] = HTT canonical junction mRNA, RT-qPCR, read-out: HTT CJ (decrease in CJ mRNA levels, IC50)
[11] = canonical junction qPCR panel, Table 4, read-out: HTT IC50 (decrease in CJ mRNA levels)

| Compound | IC50 [1, 8] | IC50 [1, 9] | IC50 [2] | IC50 [4] | IC50 [5, 10] | IC50 [5, 11] | IC50 [6] | IC50 [7] | AC50 ([1]; RT-qPCR) | Effect of Exemplary Compounds on Cell Viability, K562 [3] | AC50 ([5]; RT-qPCR) |
| --- | --- | --- | --- | --- | --- | --- | --- | --- | --- | --- | --- |
| CN1CCC2(CC1)CCN2c1ccc2nc(-c3cc4cn(C)nc4cc3O)ccc2n1 [Compound 169] | > 10000 nM | > 10000 nM | 1000 to 10000 nM | 1000 to 10000 nM | > 10000 nM | > 10000 nM | > 10000 nM | 1000 to 10000 nM | > 10000 nM | B (B represents 100-1000 nM) | > 10000 nM |
| CN[C@H]1CCN(c2ccc3nc(-c4cc5cn(C)nc5cc4O)ccc3n2)C1 [Compound 170] | 100 to 1000 nM | 100 to 1000 nM | < 100 nM | < 100 nM | < 100 nM | < 100 nM | 100 to 1000 nM | 100 to 1000 nM | 100 to 1000 nM | B (B represents 100-1000 nM) | 100 to 1000 nM |
| CN[C@@H]1CCN(c2ccc3nc(-c4cc5cn(C)nc5cc4O)ccc3n2)C1 [Compound 172] | < 100 nM | < 100 nM | < 100 nM | < 100 nM | < 100 nM | < 100 nM | 100 to 1000 nM | < 100 nM | < 100 nM | B (B represents 100-1000 nM) | 100 to 1000 nM |
| CC(C)N[C@@H]1CCN(c2ccc3nc(-c4cc5cn(C)nc5cc4O)ccc3n2)C1 [Compound 173] | < 100 nM | < 100 nM | < 100 nM | < 100 nM | < 100 nM | < 100 nM | < 100 nM | < 100 nM | < 100 nM | A (A represents <100 nM) | < 100 nM |
| Cc1cc(=O)c2cc(O)c(-c3ccc4nc(N5CCC(NC(C)(C)C)C5)ccc4n3)cc2o1 (centres unmarked) [Compound 174] | > 10000 nM | > 10000 nM | > 10000 nM | > 10000 nM | > 10000 nM | > 10000 nM | > 10000 nM | > 10000 nM | > 10000 nM | A (A represents <100 nM) | > 10000 nM |
| COc1cc2nc(C)sc2cc1-c1ccc2nc(N3CCC(NC(C)(C)C)C3)ccc2n1 (centres unmarked) [Compound 176] | 1000 to 10000 nM | 1000 to 10000 nM | 1000 to 10000 nM | 1000 to 10000 nM | 1000 to 10000 nM | 1000 to 10000 nM | 1000 to 10000 nM | 1000 to 10000 nM | 1000 to 10000 nM | C (C represents 1000-9999 nM) | 1000 to 10000 nM |
| COc1cc2nc(C)oc2cc1-c1ccc2nc(N3CCC(NC(C)(C)C)C3)ccc2n1 (centres unmarked) [Compound 177] | 1000 to 10000 nM | 1000 to 10000 nM | 1000 to 10000 nM | 1000 to 10000 nM | 1000 to 10000 nM | 1000 to 10000 nM | 1000 to 10000 nM | 1000 to 10000 nM | 1000 to 10000 nM | C (C represents 1000-9999 nM) | 1000 to 10000 nM |
| CCN[C@H]1CCN(c2ccc3nc(-c4cc5cn(C)nc5cc4O)ccc3n2)C1 [Compound 179] | 100 to 1000 nM | 100 to 1000 nM | < 100 nM | < 100 nM | < 100 nM | < 100 nM | 100 to 1000 nM | 100 to 1000 nM | < 100 nM | B (B represents 100-1000 nM) | < 100 nM |
| CCN[C@@H]1CCN(c2ccc3nc(-c4cc5cn(C)nc5cc4O)ccc3n2)C1 [Compound 180] | < 100 nM | < 100 nM | < 100 nM | < 100 nM | < 100 nM | < 100 nM | 100 to 1000 nM | < 100 nM | < 100 nM | A (A represents <100 nM) | 100 to 1000 nM |
| Cn1cc2cc(-c3ccc4nc(N5CC[C@H](NCC(F)(F)F)C5)ccc4n3)c(O)cc2n1 [Compound 182] | 1000 to 10000 nM | 1000 to 10000 nM | > 10000 nM | 1000 to 10000 nM | 1000 to 10000 nM | 1000 to 10000 nM | > 10000 nM | > 10000 nM | > 10000 nM | D (D represents greater than 10 μM in K562 cells) | > 10000 nM |
| Cc1cn2nc(-c3ccc4nc(N5CCC(NC(C)(C)C)C5)ccc4n3)cc2c(C)n1 (centres unmarked) [Compound 187] | 100 to 1000 nM | 100 to 1000 nM | < 100 nM | < 100 nM | < 100 nM | < 100 nM | < 100 nM | 100 to 1000 nM | < 100 nM | B (B represents 100-1000 nM) | < 100 nM |
| Cn1cc2cc(-c3ccc4nc(N5CC[C@H](NC6COC6)C5)ccc4n3)c(O)cc2n1 [Compound 189] | 100 to 1000 nM | 100 to 1000 nM | 1000 to 10000 nM | < 100 nM | 1000 to 10000 nM | 1000 to 10000 nM | 1000 to 10000 nM | 1000 to 10000 nM | 100 to 1000 nM | D (D represents greater than 10 μM in K562 cells) | 100 to 1000 nM |
| Cc1nc2cc(O)c(-c3ccc4nc(N5CCC(NC(C)(C)C)C5)ccc4n3)cc2s1 (centres unmarked) [Compound 190] | > 10000 nM | > 10000 nM | > 10000 nM | < 100 nM | > 10000 nM | > 10000 nM | > 10000 nM | > 10000 nM | > 10000 nM | C (C represents 1000-9999 nM) | > 10000 nM |

The next lines start with results.

| IC50 [1, 8] | IC50 [1, 9] | IC50 [2] | IC50 [4] | IC50 [5, 10] | IC50 [5, 11] | IC50 [6] | IC50 [7] | Compound | AC50 ([1]; RT-qPCR) | Effect of Exemplary Compounds on Cell Viability, K562 [3] | AC50 ([5]; RT-qPCR) |
| --- | --- | --- | --- | --- | --- | --- | --- | --- | --- | --- | --- |
| > 10000 nM | > 10000 nM | > 10000 nM | > 10000 nM | > 10000 nM | > 10000 nM | > 10000 nM | > 10000 nM | COc1cc2c(=O)n(C)cnc2cc1-c1ccc2nc(N3CCC(NC(C)(C)C)C3)ccc2n1 (centres unmarked) [Compound 168] | > 10000 nM | D (D represents greater than 10 μM in K562 cells) | > 10000 nM |
| < 100 nM | < 100 nM | < 100 nM | < 100 nM | < 100 nM | < 100 nM | < 100 nM | < 100 nM | Cc1nc2cc(O)c(-c3ccc4nc(N5CCC(NC(C)(C)C)C5)ccc4n3)cc2o1 (centres unmarked) [Compound 175] | < 100 nM | B (B represents 100-1000 nM) | < 100 nM |
| 100 to 1000 nM | 100 to 1000 nM | 100 to 1000 nM | < 100 nM | 100 to 1000 nM | 100 to 1000 nM | 100 to 1000 nM | 100 to 1000 nM | Cn1cc2cc(-c3ccc4nc(N5CCC6(CCN6)C5)ccc4n3)c(O)cc2n1 (centres unmarked) [Compound 178] | 100 to 1000 nM | B (B represents 100-1000 nM) | 100 to 1000 nM |
| 100 to 1000 nM | 100 to 1000 nM | 100 to 1000 nM | < 100 nM | 100 to 1000 nM | 100 to 1000 nM | 100 to 1000 nM | 100 to 1000 nM | Cn1cc2cc(-c3ccc4nc(C5CCNCC5)ccc4n3)ccc2n1 [Compound 184] | 100 to 1000 nM | B (B represents 100-1000 nM) | 100 to 1000 nM |
| 1000 to 10000 nM | 1000 to 10000 nM | 1000 to 10000 nM | 100 to 1000 nM | 1000 to 10000 nM | 1000 to 10000 nM | > 10000 nM | 1000 to 10000 nM | Cn1cc2cc(-c3ccc4nc(C5CCNCC5)ccc4n3)cc(F)c2n1 [Compound 185] | 1000 to 10000 nM | C (C represents 1000-9999 nM) | 1000 to 10000 nM |
| 100 to 1000 nM | 100 to 1000 nM | 100 to 1000 nM | < 100 nM | 100 to 1000 nM | 100 to 1000 nM | 1000 to 10000 nM | 1000 to 10000 nM | Cn1cc2cc(-c3ccc4nc(N5CC[C@@H](NC6COC6)C5)ccc4n3)c(O)cc2n1 [Compound 188] | 100 to 1000 nM | C (C represents 1000-9999 nM) | 100 to 1000 nM |

Reference: patent US20250092065A1, “2-(INDAZOL-5-YL)-6-(PIPERIDIN-4-YL)-1,7-NAPHTHYRIDINE DERIVATIVES AND RELATED COMPOUNDS AS MODULATORS FOR SPLICING NUCLEIC ACIDS AND FOR THE TREATMENT OF PROLIFERATIVE DISEASES” (REMIX THERAPEUTICS INC., priority 2022, published 2025)
